The target in experiment [1] is T1, HA-tagged NO66 (Homo sapiens, UniProt Q9H6W3).
T1 construct: expressed in transfected cells; host or cells: HEK293T (transient, pEF6 vector)
Nature of the experiment: Substrate trapping by anti-HA immunoprecipitation (RPL8). The experiment is classed as cell-based. Conditions: HEK293T cells; 100 μM, 18 h. The procedure: Proteins were transferred onto nitrocellulose or PVDF membranes and incubated with rabbit γ-H2AX (#9718, Cell Signaling Technologies, MA) anti-GAPDH (Sc47724, Santa Cruz Biotechnology, Santa Cruz, CA), rabbit anti-RPL27A (Abcam, ab74731), goat anti-RPL8 (Abcam, ab63941), horseradish peroxidase (HRP)-conjugated anti-HA (Roche, 12013819001), and HRP-conjugated anti-β-actin (Abcam, ab-49900).
For immunoprecipitation, the cells were harvested on ice and lysed by rotation for 1 h at 4 °C in JIES buffer. The cell debris was subsequently pelleted by centrifugation (10 min at 21 910g at 4 °C), and the supernatant was incubated overnight at 4 °C with Pierce anti-HA agarose beads (Thermo Scientific, 26181). The next day, the beads were washed 6 times with JIES buffer before the immunoprecipitates were eluted for 15 min at 1400 rpm at room temperature using 1 mg/mL HA peptide (Thermo Scientific, 26184) dissolved in JIES buffer. The eluted samples were then prepared in 1× Laemmli loading buffer (6x: 125 mM Tris-HCl [pH 6.8], 6% (w/v) SDS, 50% (v/v) glycerol, 225 mM dithiothreitol (DTT), and 0.1% (w/v) bromophenol blue) and boiled for 5 min for detection by western blot.
Plasmid DNA transfections were performed using a FuGENE 6 transfection reagent (Promega, E2691). […]

For experiment [2], the system named is KDM5. Nature of the experiment: Immunofluorescence of histone methyl mark H3K4me3 in U-87MG cells. To be noted: 50 μM, 48 h. The experiment is classed as cell-based, human. On the procedure: (§1) For immunofluorescence (IF) analysis, 50 × 10^4 U-87MG cells were grown on sterile coverslips. Twenty-four hours after plating, the cells were treated with the different compounds (IOX-1 at 100 μM, GSK-J4 at 10 μM, CPI-455 at 25 μM, and both MINA53 inhibitors 9 and 10 at 50 μM) for 48 h. IF staining for different trimethylated lysine residues of histone H3 ([…]) were carried out on PFA-fixed cells blocked with 20% goat serum in PBS (1 h, RT) and incubated overnight at 4 °C with primary rabbit polyclonal antibodies against H3K4me3 (Cell Signaling, C42D8, 1:400), H3K9me3 (Cell Signaling, D4W1U, 1:400), and H3K27me3 (Cell Signaling, C36B11, 1:400). Primary antibodies were detected using rabbit anti-IgG secondary antibodies conjugated with either Cy3 (Jackson Immunoresearch 711-165-152). DNA was stained using 0.05 μg/mL 4′,6-diamidino-2-phenylindole (DAPI), and after washing, the coverslips were mounted in Vectashield mounting media. […]
(§2) For quantification of fluorescence intensity signals, images of untreated or treated cells were analyzed and processed using open-source Cell Profiler 4.1.3 image analysis software (https://cellprofiler.org/) to measure fluorescence-integrated intensity values for antibody-binding relating to individual cells. […]

Experiment [3] relates to KDM4. Nature of the experiment: Immunofluorescence of histone methyl mark H3K9me3 in U-87MG cells. The experiment is classed as cell-based, human. Conditions: 50 μM, 48 h. On the procedure:
as §1, §2

In experiment [4] the test system is KDM6. Kind of experiment: Immunofluorescence of histone methyl mark H3K27me3 in U-87MG cells. The class given is cell-based, human. Conditions: 50 μM, 48 h. The procedure:
as §1, §2

These results are taken from publication PMC8667043, “First-in-Class Inhibitors of the Ribosomal Oxygenase MINA53” (Journal of Medicinal Chemistry, 2021).

T1 sequence (Q9H6W3 whole entry): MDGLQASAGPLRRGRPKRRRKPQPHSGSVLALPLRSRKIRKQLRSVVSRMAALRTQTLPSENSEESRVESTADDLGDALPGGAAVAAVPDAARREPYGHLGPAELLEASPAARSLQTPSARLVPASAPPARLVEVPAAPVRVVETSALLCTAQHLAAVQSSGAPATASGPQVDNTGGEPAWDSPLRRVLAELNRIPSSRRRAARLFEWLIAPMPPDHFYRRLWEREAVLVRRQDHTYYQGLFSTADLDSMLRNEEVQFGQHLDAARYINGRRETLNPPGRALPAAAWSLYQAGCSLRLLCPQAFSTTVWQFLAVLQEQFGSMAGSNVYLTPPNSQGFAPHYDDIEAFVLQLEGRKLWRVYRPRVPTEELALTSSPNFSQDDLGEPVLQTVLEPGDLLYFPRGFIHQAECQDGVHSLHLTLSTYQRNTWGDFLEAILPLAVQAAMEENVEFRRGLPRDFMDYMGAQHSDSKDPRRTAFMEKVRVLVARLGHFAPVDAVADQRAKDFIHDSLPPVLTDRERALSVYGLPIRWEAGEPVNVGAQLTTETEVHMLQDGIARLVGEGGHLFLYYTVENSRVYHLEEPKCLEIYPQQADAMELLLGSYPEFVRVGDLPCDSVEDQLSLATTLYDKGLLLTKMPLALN

Take `O=C(O)c1cnc(SCCc2ccccc2)[nH]c1=O` [compound 9, 2-(Phenethylthio)-3,4-dihydro-4-oxopyrimidine-5-carboxylic Acid]: in experiment [1], the “trapping of RPL8 with HA-tagged NO66” value was “did not observe evidence”. Besides, in experiment [2], the “level of histone methyl mark H3K4me3 (KDM5 selectivity)” value is listed as “did not observe any evidence for an increase”. Further, the “level of histone methyl mark H3K9me3 (KDM4 selectivity)” value in experiment [3] was “did not observe any evidence for an increase”. Moreover, in experiment [4], the “level of histone methyl mark H3K27me3 (KDM6 selectivity)” value is on record as “did not observe any evidence for an increase”.

Take `O=C(O)c1cnc(SCCCc2ccccc2)[nH]c1=O` [compound 10, 2-((3-Phenylpropyl)thio)-3,4-dihydro-4-oxopyrimidine-5-carboxylic Acid]: in experiment [1], the “trapping of RPL8 with HA-tagged NO66” value is given as “did not observe evidence”. Also, the “level of histone methyl mark H3K4me3 (KDM5 selectivity)” value in experiment [2] was “did not observe any evidence for an increase”. Further, the “level of histone methyl mark H3K9me3 (KDM4 selectivity)” value in experiment [3] is recorded as “did not observe any evidence for an increase”. Besides, the “level of histone methyl mark H3K27me3 (KDM6 selectivity)” value in experiment [4] is listed as “did not observe any evidence for an increase”.
